Experimental data published in PMC5845004, “Novel (p)ppGpp Binding and Metabolizing Proteins of Escherichia coli” (mBio, 2018).

Assays:
[1] = target: T1, NudG (Escherichia coli, UniProt P77788); assay: DRaCALA competition assay, lysate with overproduced NudG; type: binding, E. coli; details: whole-cell lysate, 2 nM hot (p)ppGpp, 100 µM cold competitor
T1 construct: expressed in transfected cells; host or cells: E. coli ASKA collection strain, IPTG-induced, whole-cell lysate
Method: (§1) Bacterial cells were collected and frozen at −80°C.

[2] = target: T1, NudG; assay: In vitro cleavage assay (TLC), NudG; type: biochemical, E. coli; details: 1 µM NudG, 10 nM hot ppGpp, 100 µM competitor, 30°C
Method: (§2) The purified His6-MutT and His6-NudG proteins were tested for their relative levels of cleavage of ppGpp compared to those seen with their native substrates. For this, a 1 μM concentration of each protein and a 10 nM concentration of [α-^32P]ppGpp were used together with 100 μM concentrations of cold competitors [ppGpp, GTP, ATP, 8-oxo-(d)GTP, 2-hydroxyl-(d)ATP] or 50 mM EDTA in buffer B. The samples were incubated at 30°C for 10 min and for 1 h before the reactions were stopped by adding 50 mM EDTA. The cleavage products were resolved by TLC as described above. The purified His6-NadR and His6-TrmE proteins were tested for their cleavage of both GTP and ppGpp. For cleavage of GTP, 10 μM concentrations of His6-MBP, His6-TrmE, and 20 μM His6-NadR proteins were used with 2 nM [α-^32P]GTP and 100 μM cold GTP in buffer B. For cleavage of ppGpp, 10 μM concentrations of His6-TrmE, His6-MBP, and His6-NadR proteins were used with 10 nM [α-^32P]ppGpp in buffer B. Of note, for His6-TrmE, another reaction was also performed in buffer B supplemented with 100 mM KCl. The reactions were performed at RT for 10 min and were stopped by adding 17% formic acid. The cleavage products were resolved by TLC as described above.
(§3) A 20 μM concentration of each of purified proteins MutT, NudG, NadR, TrmE, and MBP (as a negative control) was incubated with 100 μM ppGpp in buffer B (containing 40 mM Tris [pH 7.5], 100 mM NaCl, and 10 mM MgCl2) for 20 min at room temperature. Samples were snap-frozen on dry ice and analyzed with UPLC-MS afterward. All samples and buffers were stored at −80°C, thawed on ice, and kept at 4°C during analysis. For the analysis, a UPLC-quadrupole time of flight (UPLC-qTOF) method (Waters) was used. Analysis conditions were as follows: column, zic-HILIC (Merck Millipore) (150 by 2.1 mm, […], gradient elution, flow rate set to 0.3 ml/min); mobile phase A, 10 mM ammonium acetate (pH 5); mobile phase B, 90% acetonitrile with 10 mM ammonium acetate (pH 5). The gradient was set up as follows: min 0 to 2, 80% B; min 2 to 16, 80% B to 50% B; hold until min 20; injection volume, 4 µl. The detection conditions were as follows: photodiode array detector (PDA), […] (evaluated at 260 nm); MS, ionization; electrospray ionization (ESI+), scan, 200 to 800 m/z with lock mass correction. Analytes were identified by their accurate mass and retention time data for a known standard dissolved in used buffer (for the chemicals of the same nominal masses). These standards were either synthesized and their structures confirmed by nuclear magnetic resonance (NMR) (for ppGp, pGpp, and pGp) or purchased (ppGpp was purchased from Jena Biocsience and GTP from Sigma-Aldrich).

[3] = target: T2, MutT (Escherichia coli, UniProt P08337); assay: In vitro cleavage assay (TLC), MutT; type: biochemical, E. coli; details: 1 µM MutT, 10 nM hot ppGpp, 100 µM competitor, 30°C, up to 1 h
T2 sequence (P08337 whole entry): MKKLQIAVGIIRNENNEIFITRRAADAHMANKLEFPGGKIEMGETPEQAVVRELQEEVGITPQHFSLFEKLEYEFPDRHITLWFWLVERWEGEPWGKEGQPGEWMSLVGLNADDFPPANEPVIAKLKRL
Method: as §2, §3

[4] = target: T2, MutT; details: whole-cell lysate, 2 nM hot (p)ppGpp, 100 µM cold competitor
Method: DRaCALA screening was performed essentially as described before ([39]) with minor modifications. Briefly, ASKA collection strains were inoculated into 1.5 ml LB broth with 25 μg/ml chloramphenicol in deep 96-well plates (Greiner) and grown over night at 30°C. IPTG (1 mM) was added the next morning to induce protein expression at 30°C for 6 h. Bacterial cells were collected and frozen at −80°C. To lyse cells, 150 μl buffer B with 2 mM phenylmethylsulfonyl fluoride (PMSF), 40 μg/ml DNase 1, and 0.5 mg/ml lysozyme was used to resuspend cell pellets and then subjected to three freeze-thaw cycles before Benzonase (Sigma) (2.5 U/well) was added to reduce lysate viscosity. A 20-μl volume of lysate was transferred into a 96-well V-bottom plate (Sterilin), incubated at 37°C for 15 min, and placed on ice. […] Membranes were dried for 10 min at RT, and binding signals were exposed to a BAS IP screen (GE Healthcare) and detected by the use of a Typhoon FLA-7000 PhosphorImager.
For competition assays, purified proteins at the specified concentrations were incubated with 2 nM [α-^32P]ppGpp or [α-^32P]pppGpp in the presence of 100 μM competitor nucleotides in binding buffer B. The reaction mixtures were incubated for 5 min at RT, 2 µl was spotted onto nitrocellulose membranes, and the values corresponding to the bound fractions were determined.

[5] = target: T3, YgdH (Escherichia coli, UniProt P0ADR8); assay: DRaCALA competition assay, YgdH; type: binding, E. coli; details: 50 µM YgdH, 100 µM cold competitor, without or with 1.5 mM magnesium
Method: (§4) For Kd measurements by DRaCALA, 2-fold serial dilutions from the highest possible concentrations of each purified protein were prepared in binding buffer B, and approximately 2 nM concentrations of α-^32P-labeled ppGpp, pppGpp, GTP, and GDP were added. The mixtures were incubated for 5 min at RT before spotting of 2 µl of the reaction mixtures onto nitrocellulose membranes. […] For competition assays, purified proteins at the specified concentrations were incubated with 2 nM [α-^32P]ppGpp or [α-^32P]pppGpp in the presence of 100 μM competitor nucleotides in binding buffer B. The reaction mixtures were incubated for 5 min at RT, 2 µl was spotted onto nitrocellulose membranes, and the values corresponding to the bound fractions were determined. EDTA was added at excess concentrations as specified for each case.

[6] = target: Der (Escherichia coli, UniProt P0A6P5); assay: DRaCALA Kd determination, purified Der; type: binding, E. coli; details: 2 nM 32P-labeled ligand, read-out: apparent Kd, Der
Der, sequence (P0A6P5 whole entry): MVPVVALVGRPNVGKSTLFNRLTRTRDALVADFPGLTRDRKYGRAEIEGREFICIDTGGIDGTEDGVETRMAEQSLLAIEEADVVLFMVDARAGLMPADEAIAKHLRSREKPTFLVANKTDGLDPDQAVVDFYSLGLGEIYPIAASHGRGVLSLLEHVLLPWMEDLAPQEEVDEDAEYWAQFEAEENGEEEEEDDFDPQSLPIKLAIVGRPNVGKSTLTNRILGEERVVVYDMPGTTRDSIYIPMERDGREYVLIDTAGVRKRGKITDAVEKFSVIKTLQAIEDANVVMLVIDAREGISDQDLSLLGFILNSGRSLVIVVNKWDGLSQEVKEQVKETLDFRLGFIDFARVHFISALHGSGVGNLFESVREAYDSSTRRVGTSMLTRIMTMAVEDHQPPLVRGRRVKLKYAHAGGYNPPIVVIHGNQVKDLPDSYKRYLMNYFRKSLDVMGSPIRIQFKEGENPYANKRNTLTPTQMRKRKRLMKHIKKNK
Method: as §4

[7] = target: T4, UshA (Escherichia coli, UniProt P07024); assay: DRaCALA competition assay, lysate with overexpressed UshA; type: binding; details: cell lysate, 2 nM hot (p)ppGpp, 100 µM cold competitor
T4 sequence (P07024 26-550): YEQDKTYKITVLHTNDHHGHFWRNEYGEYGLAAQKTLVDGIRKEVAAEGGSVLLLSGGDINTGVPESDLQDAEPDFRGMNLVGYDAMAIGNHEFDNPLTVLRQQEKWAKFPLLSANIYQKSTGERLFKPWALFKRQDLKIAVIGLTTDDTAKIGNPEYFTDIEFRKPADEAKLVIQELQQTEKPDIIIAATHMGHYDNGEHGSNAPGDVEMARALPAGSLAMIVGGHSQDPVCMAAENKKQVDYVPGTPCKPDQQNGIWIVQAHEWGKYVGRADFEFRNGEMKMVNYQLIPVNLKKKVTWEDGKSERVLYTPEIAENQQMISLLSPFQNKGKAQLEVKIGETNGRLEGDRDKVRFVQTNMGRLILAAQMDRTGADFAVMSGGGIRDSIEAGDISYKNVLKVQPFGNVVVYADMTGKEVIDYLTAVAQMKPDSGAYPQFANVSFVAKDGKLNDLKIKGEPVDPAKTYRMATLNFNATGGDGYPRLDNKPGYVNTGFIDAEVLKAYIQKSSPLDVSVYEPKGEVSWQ
Method: as §1

[8] = target: T3, YgdH; assay: DRaCALA binding and Kd determination, purified YgdH; set-up: species or system E. coli; details: DRaCALA, in the presence of EDTA (without Mg2+); read-out: Kd, YgdH + EDTA (converted)
Method: as §4

[9] = target: RF3 (PrfC) (Escherichia coli, UniProt P0A7I4); assay: DRaCALA Kd determination, purified RF3; type: binding, E. coli; details: 2 nM 32P-labeled ligand, read-out: apparent Kd, RF3 (PrfC)
RF3 (PrfC), sequence (P0A7I4 whole entry): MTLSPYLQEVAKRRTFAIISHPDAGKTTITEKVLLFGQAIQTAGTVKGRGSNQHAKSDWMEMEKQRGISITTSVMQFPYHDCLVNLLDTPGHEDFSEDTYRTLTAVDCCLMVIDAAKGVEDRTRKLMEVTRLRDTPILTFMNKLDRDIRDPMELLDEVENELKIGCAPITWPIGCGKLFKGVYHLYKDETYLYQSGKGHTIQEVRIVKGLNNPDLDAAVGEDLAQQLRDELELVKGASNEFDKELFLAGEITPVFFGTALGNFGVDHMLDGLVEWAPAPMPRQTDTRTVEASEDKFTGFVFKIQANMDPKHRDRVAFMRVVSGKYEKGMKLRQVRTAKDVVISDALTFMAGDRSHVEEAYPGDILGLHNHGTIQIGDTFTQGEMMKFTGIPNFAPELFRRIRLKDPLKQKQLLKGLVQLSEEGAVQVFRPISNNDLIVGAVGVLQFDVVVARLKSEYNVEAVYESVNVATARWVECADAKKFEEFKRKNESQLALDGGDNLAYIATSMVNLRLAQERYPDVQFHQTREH
Method: (§5) For Kd measurements by DRaCALA, 2-fold serial dilutions from the highest possible concentrations of each purified protein were prepared in binding buffer B, and approximately 2 nM concentrations of α-^32P-labeled ppGpp, pppGpp, GTP, and GDP were added. The mixtures were incubated for 5 min at RT before spotting of 2 µl of the reaction mixtures onto nitrocellulose membranes. The fractions of bound ligand and the apparent Kd values were calculated as previously described ([37]).

[10] = target: SaDer (Staphylococcus aureus, UniProt A6QH24); assay: DRaCALA Kd determination, SaDer; type: binding, S. aureus
SaDer, sequence (A6QH24 whole entry): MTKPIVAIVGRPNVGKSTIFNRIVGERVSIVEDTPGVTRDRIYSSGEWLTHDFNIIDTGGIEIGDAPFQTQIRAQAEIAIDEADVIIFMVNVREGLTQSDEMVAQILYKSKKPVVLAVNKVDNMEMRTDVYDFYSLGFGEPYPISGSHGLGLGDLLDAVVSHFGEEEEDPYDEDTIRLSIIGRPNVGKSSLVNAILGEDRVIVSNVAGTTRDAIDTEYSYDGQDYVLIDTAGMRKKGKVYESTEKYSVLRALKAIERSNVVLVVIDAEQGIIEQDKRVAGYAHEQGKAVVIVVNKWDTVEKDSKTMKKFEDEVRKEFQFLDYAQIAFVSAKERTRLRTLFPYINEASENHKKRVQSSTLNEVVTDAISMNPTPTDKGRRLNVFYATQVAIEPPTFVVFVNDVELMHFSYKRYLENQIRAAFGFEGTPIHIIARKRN
Method: as §5

[11] = target: HypB (Escherichia coli, UniProt P0AAN3); assay: DRaCALA Kd determination, purified HypB; type: binding, E. coli; details: 2 nM 32P-labeled ligand, read-out: apparent Kd, HypB
HypB, sequence (P0AAN3 whole entry): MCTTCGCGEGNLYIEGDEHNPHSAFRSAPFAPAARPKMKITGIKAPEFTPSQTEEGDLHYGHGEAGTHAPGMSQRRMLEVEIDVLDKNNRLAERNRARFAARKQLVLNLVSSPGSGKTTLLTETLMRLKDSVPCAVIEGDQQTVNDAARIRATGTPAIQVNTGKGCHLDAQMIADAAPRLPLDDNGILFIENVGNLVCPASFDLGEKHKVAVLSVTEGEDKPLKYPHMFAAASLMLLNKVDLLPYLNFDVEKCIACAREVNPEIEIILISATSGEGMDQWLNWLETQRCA
Method: as §4

[12] = target: T5, TrmE (Escherichia coli, UniProt P25522); assay: DRaCALA Kd determination, purified TrmE; type: binding, E. coli; details: in the presence of magnesium, read-out: apparent Kd, TrmE
T5 sequence (P25522 whole entry): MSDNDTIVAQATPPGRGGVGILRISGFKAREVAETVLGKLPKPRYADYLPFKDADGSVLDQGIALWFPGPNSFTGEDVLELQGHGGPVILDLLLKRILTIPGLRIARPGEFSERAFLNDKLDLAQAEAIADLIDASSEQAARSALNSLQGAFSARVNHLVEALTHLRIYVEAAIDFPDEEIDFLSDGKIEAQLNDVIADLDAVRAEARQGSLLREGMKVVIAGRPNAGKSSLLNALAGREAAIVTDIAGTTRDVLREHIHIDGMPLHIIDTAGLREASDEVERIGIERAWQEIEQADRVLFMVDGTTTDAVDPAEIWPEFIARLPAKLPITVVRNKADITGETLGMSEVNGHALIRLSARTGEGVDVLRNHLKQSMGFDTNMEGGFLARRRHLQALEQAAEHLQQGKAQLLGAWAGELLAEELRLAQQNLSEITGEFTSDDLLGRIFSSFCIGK
Method: as §4

[13] = target: T5, TrmE; assay: In vitro cleavage assay (TLC), TrmE; type: biochemical, E. coli; details: 10 µM TrmE, buffer B, with 100 mM potassium where stated, 10 min
Method: as §2
A 20 μM concentration of each of purified proteins MutT, NudG, NadR, TrmE, and MBP (as a negative control) was incubated with 100 μM ppGpp in buffer B (containing 40 mM Tris [pH 7.5], 100 mM NaCl, and 10 mM MgCl2) for 20 min at room temperature. Samples were snap-frozen on dry ice and analyzed with UPLC-MS afterward. All samples and buffers were stored at −80°C, thawed on ice, and kept at 4°C during analysis. For the analysis, a UPLC-quadrupole time of flight (UPLC-qTOF) method (Waters) was used. […] The detection conditions were as follows: photodiode array detector (PDA), […] (evaluated at 260 nm); MS, ionization; electrospray ionization (ESI+), scan, 200 to 800 m/z with lock mass correction. […]

[14] = target: Hpt (Escherichia coli, UniProt P0A9M2); assay: DRaCALA competition assay, Hpt; type: binding, E. coli; details: 20 µM Hpt, 2 nM hot ppGpp, 100 µM cold competitor
Hpt, sequence (P0A9M2 whole entry): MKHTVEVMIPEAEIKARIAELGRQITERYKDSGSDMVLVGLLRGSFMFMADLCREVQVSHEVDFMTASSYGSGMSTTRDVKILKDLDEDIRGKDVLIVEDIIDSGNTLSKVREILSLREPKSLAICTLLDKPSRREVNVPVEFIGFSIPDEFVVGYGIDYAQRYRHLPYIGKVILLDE
Method: For Kd measurements by DRaCALA, 2-fold serial dilutions from the highest possible concentrations of each purified protein were prepared in binding buffer B, and approximately 2 nM concentrations of α-^32P-labeled ppGpp, pppGpp, GTP, and GDP were added. The mixtures were incubated for 5 min at RT before spotting of 2 µl of the reaction mixtures onto nitrocellulose membranes. The fractions of bound ligand and the apparent Kd values were calculated as previously described ([37]). For competition assays, purified proteins at the specified concentrations were incubated with 2 nM [α-^32P]ppGpp or [α-^32P]pppGpp in the presence of 100 μM competitor nucleotides in binding buffer B. The reaction mixtures were incubated for 5 min at RT, 2 µl was spotted onto nitrocellulose membranes, and the values corresponding to the bound fractions were determined. EDTA was added at excess concentrations as specified for each case.

[15] = target: the molecule itself; assay: SEC; size exclusion FPLC profile of purified His6-YgdH (53 kDa) compared with protein standards

T1 sequence (P77788 whole entry): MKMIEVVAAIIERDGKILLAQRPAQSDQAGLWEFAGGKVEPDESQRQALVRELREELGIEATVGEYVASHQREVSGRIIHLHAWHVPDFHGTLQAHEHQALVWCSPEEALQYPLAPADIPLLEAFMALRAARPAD

## 2-OH-(d)ATP
[1]
  competition for NudG-bound (p)ppGpp: comparable to unlabeled ppGpp
[2]
  inhibition of [α-32P]ppGpp cleavage by NudG: slightly better than ppGpp

## 8-oxo-(d)GTP
[3]
  inhibition of [α-32P]ppGpp cleavage by MutT: totally inhibited
[4]
  competition for MutT-bound (p)ppGpp: completely outcompete

## Nc1ncnc2c1ncn2[C@@H]1O[C@H](COP(=O)(O)O)[C@@H](O)[C@H]1O [AMP]
[5]
  competition for [α-32P]ppGpp binding to YgdH by YgdH substrates: none of them could outcompete ppGpp

## Nc1ncnc2c1ncn2[C@@H]1O[C@H](COP(=O)(O)OP(=O)(O)OP(=O)(O)O)[C@@H](O)[C@H]1O [ATP]
[1]
  competition for NudG-bound (p)ppGpp: did not compete

## Nc1nc2c(ncn2[C@@H]2O[C@H](COP(=O)(O)OP(=O)(O)O)[C@@H](O)[C@H]2O)c(=O)[nH]1 [GDP]
[6]
  Kd: 1.3 ± 0.1 µM
[1]
  competition for NudG-bound (p)ppGpp: but not the structurally very similar GTP and GDP
[7]
  competition for UshA-bound (p)ppGpp: but not the structurally very similar GTP and GDP

## Nc1nc2c(ncn2[C@@H]2O[C@H](COP(=O)(O)O)[C@@H](O)[C@H]2O)c(=O)[nH]1 [GMP]
[5]
  competition for [α-32P]ppGpp binding to YgdH by YgdH substrates: none of them could outcompete ppGpp

## Nc1nc2c(ncn2[C@@H]2O[C@H](COP(=O)(O)OP(=O)(O)OP(=O)(O)O)[C@@H](O)[C@H]2O)c(=O)[nH]1 [GTP]
[8]
  Kd: 21.4 ± 11.5 µM
[6]
  Kd: 13.7 ± 7.1 µM
[9]
  Kd: 29.3 ± 9.8 µM
[10]
  Kd: 3.5 ± 0.8 µM
[11]
  Kd: 9 ± 1.8 µM
[12]
  Kd: 4.6 ± 1.1 µM
[1]
  competition for NudG-bound (p)ppGpp: but not the structurally very similar GTP and GDP
[7]
  competition for UshA-bound (p)ppGpp: but not the structurally very similar GTP and GDP
[3]
  inhibition of [α-32P]ppGpp cleavage by MutT: very limited inhibitory effects
[13]
  cleavage by TrmE: converted almost all GTP

## O=P(O)(O)OC[C@H]1OC(OP(=O)(O)OP(=O)(O)O)[C@H](O)[C@@H]1O (stereo partly shown) [PRPP, phosphoribosyl pyrophosphate]
[14]
  competition for bound [α-32P]ppGpp on Hpt: partially outcompete

B1: YgdH (ECK2790), His6-YgdH (enzyme, E. coli K-12, UniProt P0ADR8 1-454, looked up)
chain: MITHISPLGSMDMLSQLEVDMLKRTASSDLYQLFRNCSLAVLNSGSLTDNSKELLSRFENFDINVLRRERGVKLELINPPEEAFVDGRIIRALQANLFAVLRDILFVYGQIHNTVRFPNLNLDNSVHITNLVFSILRNARALHVGEAPNMVVCWGGHSINENEYLYARRVGNQLGLRELNICTGCGPGAMEAPMKGAAVGHAQQRYKDSRFIGMTEPSIIAAEPPNPLVNELIIMPDIEKRLEAFVRIAHGIIIFPGGVGTAEELLYLLGILMNPANKDQVLPLILTGPKESADYFRVLDEFVVHTLGENARRHYRIIIDDAAEVARQMKKSMPLVKENRRDTGDAYSFNWSMRIAPDLQMPFEPSHENMANLKLYPDQPVEVLAADLRRAFSGIVAGNVKEVGIRAIEEFGPYKINGDKEIMRRMDDLLQGFVAQHRMKLPGSAYIPCYEICT
notes: YgdH (ECK2790), nucleotide nucleosidase of E. coli K-12, expressed from the ASKA plasmid library (pCA24N vector); The ASKA clone carries the gene of E. coli K-12; The printed size of His6-YgdH is 53 kDa; source: E. coli ASKA collection AG1 strain, purified (Ni-NTA, size exclusion chromatography); not shown: His6, N-terminal, kept
[15]
  stoichiometry N: 4
